Data on 22 compounds can be found in patent publication US8618289B2 (Ambit Biosciences Corporation, priority 2008, dated 2013).

SMILES strings stand for the structures. Where two headings read alike, the source gives them in different places.

The target in assay [1] is RAF kinases (Homo sapiens, UniProt P04049). The note with it: read-out: RAF1 Kd; RAF1.
The target of assay [2] is RAF kinases (Homo sapiens, UniProt P15056). The note with it: read-out: BRAF WT Kd; BRAF WT.
Assay [3] has as its system MEK1 phosphorylation in the A375 human melanoma cell line. As to the kind of experiment: cells. The note with it: A-375, read-out: pMEK IC50.
Assay [4] deals with T1, RAF kinases (Homo sapiens, UniProt P15056, V600E). As to the kind of experiment: biochemical.
T1 sequence (P15056 whole entry V600E): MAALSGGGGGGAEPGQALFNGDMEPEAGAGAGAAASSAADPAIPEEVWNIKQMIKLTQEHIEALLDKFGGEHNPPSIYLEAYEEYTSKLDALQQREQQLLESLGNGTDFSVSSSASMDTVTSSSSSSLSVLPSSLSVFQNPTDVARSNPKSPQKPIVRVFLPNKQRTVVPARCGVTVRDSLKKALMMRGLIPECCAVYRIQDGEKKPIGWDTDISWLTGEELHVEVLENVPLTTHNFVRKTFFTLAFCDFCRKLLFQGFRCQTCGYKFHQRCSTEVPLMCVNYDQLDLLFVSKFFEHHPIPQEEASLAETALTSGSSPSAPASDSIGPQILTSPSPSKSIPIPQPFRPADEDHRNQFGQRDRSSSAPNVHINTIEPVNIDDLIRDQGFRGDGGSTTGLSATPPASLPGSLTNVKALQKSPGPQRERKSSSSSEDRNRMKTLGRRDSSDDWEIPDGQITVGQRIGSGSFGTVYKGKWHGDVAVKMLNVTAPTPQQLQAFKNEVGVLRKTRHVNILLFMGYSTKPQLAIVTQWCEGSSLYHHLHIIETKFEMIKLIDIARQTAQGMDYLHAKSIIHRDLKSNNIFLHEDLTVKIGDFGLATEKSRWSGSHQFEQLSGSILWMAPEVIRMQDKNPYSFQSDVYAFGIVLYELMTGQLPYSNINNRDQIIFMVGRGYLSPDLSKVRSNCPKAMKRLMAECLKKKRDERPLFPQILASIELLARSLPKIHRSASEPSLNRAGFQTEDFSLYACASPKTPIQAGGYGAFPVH
The target in assay [5] is T1, RAF kinases. The note with it: read-out: BRAF V600E Kd; BRAF V600E.
The subject of the next assay is A375 cells. The assay can be described thus: cells. The note with it: Homo sapiens, A-375, read-out: A375 Viability EC50.

Chain of RAF kinases (Homo sapiens, UniProt P15056) (P15056 whole entry): as the sequence (P15056 whole entry V600E) above, with E600V counted along it
Chain of RAF kinases (Homo sapiens, UniProt P04049) (P04049 whole entry): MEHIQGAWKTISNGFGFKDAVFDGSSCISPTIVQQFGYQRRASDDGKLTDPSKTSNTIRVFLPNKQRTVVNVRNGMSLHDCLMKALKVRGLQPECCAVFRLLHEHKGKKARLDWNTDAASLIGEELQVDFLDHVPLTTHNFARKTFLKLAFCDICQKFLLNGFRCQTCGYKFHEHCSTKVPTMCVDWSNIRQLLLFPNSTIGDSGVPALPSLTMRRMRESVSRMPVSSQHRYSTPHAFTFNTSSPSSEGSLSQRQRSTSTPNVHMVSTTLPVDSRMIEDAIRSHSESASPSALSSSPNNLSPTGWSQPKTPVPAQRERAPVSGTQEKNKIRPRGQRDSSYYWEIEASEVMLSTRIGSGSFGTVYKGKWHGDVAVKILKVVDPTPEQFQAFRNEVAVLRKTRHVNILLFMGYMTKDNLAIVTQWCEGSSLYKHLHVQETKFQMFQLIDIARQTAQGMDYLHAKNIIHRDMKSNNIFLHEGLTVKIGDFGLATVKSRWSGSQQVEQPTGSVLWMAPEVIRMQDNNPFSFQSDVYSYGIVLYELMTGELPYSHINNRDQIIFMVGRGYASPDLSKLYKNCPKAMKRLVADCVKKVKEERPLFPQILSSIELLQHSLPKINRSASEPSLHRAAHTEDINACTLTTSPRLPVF

In general, Kd refers to a measure of binding affinity in units of concentration. By IC50 is commonly meant the concentration needed to halve the response being measured. Consider `COc1cc2ncnc(Sc3cccc(NC(=O)Nc4cc(C5(C(F)(F)F)CC5)nn4-c4ccccc4)c3)c2cc1OC` [Ex 383, 1-(3-(6,7-dimethoxyquinazolin-4-ylthio)phenyl)-3-(1-phenyl-3-(1-(trifluoromethyl)cyclopropyl)-1H-pyrazol-5-yl)urea], for which the Kd at RAF kinases [1] was over 1000 nM; at RAF kinases [2], over 1000 nM; at RAF kinases [4] it was 250 to 500 nM. The IC50 in assay [3] was under 250 nM.

As to `COc1cc2ncnc(Sc3cccc(NC(=O)Nc4cc(C(C)(C)C)nn4-c4ccccc4C(F)(F)F)c3)c2cc1OC` [Ex 375, 1-(3-tert-butyl-1-(2-(trifluoromethyl)phenyl)-1H-pyrazol-5-yl)-3-(3-(6,7-dimethoxyquinazolin-4-ylthio)phenyl)urea], the dissociation constant Kd was over 1000 nM on RAF kinases [1], over 1000 nM at RAF kinases [2] and 500 to 1000 nM on RAF kinases [4]. In assay [3], the half-inhibitory concentration (IC50) is under 250 nM.

On to `COc1cc2ncnc(Sc3cccc(NC(=O)Nc4cc(C(C)(C)C)nn4-c4ccc(Cl)cc4)c3)c2cc1OC` [Ex 366, 1-(3-tert-butyl-1-(4-chlorophenyl)-1H-pyrazol-5-yl)-3-(3-(6,7-dimethoxyquinazolin-4-ylthio)phenyl)urea], for which the Kd on RAF kinases [1] was over 1000 nM; at RAF kinases [2] it was over 1000 nM; at RAF kinases [4], 250 to 500 nM. Besides, the IC50 in assay [3] is under 250 nM.

`COc1cc2ncnc(Oc3cccc(NC(=O)Nc4cc(C(C)(C)C)nn4-c4ccc(Cl)cc4)c3)c2cc1OC` [Ex 365, 1-(3-tert-butyl-1-(4-chlorophenyl)-1H-pyrazol-5-yl)-3-(3-(6,7-dimethoxyquinazolin-4-yloxy)phenyl)urea]: the Kd is over 1000 nM at RAF kinases [1], over 1000 nM at RAF kinases [2] and 250 to 500 nM on RAF kinases [4]. Besides, the IC50 in assay [3] is under 250 nM.

`COc1cc2ncnc(Oc3cccc(NC(=O)Nc4cc(C(C)(C)C)nn4-c4ccc(C)cc4C)c3)c2cc1OC` [Ex 282, 1-(3-tert-butyl-1-(2,4-dimethylphenyl)-1H-pyrazol-5-yl)-3-(3-(6,7-dimethoxyquinazolin-4-yloxy)phenyl)urea]: the figures for the Kd at RAF kinases [1], at RAF kinases [2] and on RAF kinases [4] were over 1000 nM, over 1000 nM and 500 to 1000 nM, respectively. Besides, the IC50 in assay [3] is under 250 nM.

As for `COc1cc2ncnc(Oc3cccc(NC(=O)Nc4cc(C(C)(C)C)nn4-c4ccc(C(F)(F)F)cc4)c3)c2cc1OC` [Ex 373, 1-(3-tert-butyl-1-(4-(trifluoromethyl)phenyl)-1H-pyrazol-5-yl)-3-(3-(6,7-dimethoxyquinazolin-4-yloxy)phenyl)urea], the Kd at RAF kinases [1] is over 1000 nM; on RAF kinases [2], over 1000 nM; at RAF kinases [4] it was 500 to 1000 nM. Besides, in assay [3], the IC50 is under 250 nM.

For orientation: EC50 means the concentration that produces a half-maximal response. In the case of `COc1cc2ncnc([S+]([O-])c3cccc(NC(=O)Nc4cc(C(C)(C)C)on4)c3)c2cc1OC` (centres unmarked) [Ex 253, 1-(5-tert-butylisoxazol-3-yl)-3-(3-(6,7-dimethoxyquinazolin-4-ylsulfinyl)phenyl)urea], the Kd on RAF kinases [1], at RAF kinases [2] and on RAF kinases [5] was over 1000 nM throughout. Besides, the IC50 in assay [3] was in the range of 500 to 1000 nM. The EC50 in the assay with A375 cells is over 1000 nM.

`COc1cc2ncnc(Oc3cccc(NC(=O)Nc4cc(C(C)(C)C)on4)c3C)c2cc1OC` [Ex290, 1-(5-tert-butylisoxazol-3-yl)-3-(3-(6,7-dimethoxyquinazolin-4-yloxy)-2-methylphenyl)urea]: the Kd on RAF kinases [1], on RAF kinases [2] and on RAF kinases [5] was under 250 nM in each case. Also, the IC50 in assay [3] is under 250 nM. Moreover, the EC50 in the assay with A375 cells is 250 to 500 nM.

Turning to `CCOc1cc2c(Oc3cccc(NC(=O)Nc4cc(C(C)(C)F)no4)c3)ncnc2cc1OC` [Ex 392, 1-(3-(6-ethoxy-7-methoxyquinazolin-4-yloxy)phenyl)-3-(3-(2-fluoropropan-2-yl)isoxazol-5-yl)urea], the dissociation constant Kd on RAF kinases [1], at RAF kinases [2] and on RAF kinases [5] was under 250 nM in each case. Besides, in assay [3], the IC50 was under 250 nM. The EC50 in the assay on A375 cells was under 250 nM.

`COc1cc2ncnc(Sc3cccc(NC(=O)Nc4cc(C5(C(F)(F)F)CC5)on4)c3)c2cc1OC` [Ex 378, 1-(3-(6,7-dimethoxyquinazolin-4-ylthio)phenyl)-3-(5-(1-(trifluoromethyl)cyclopropyl)isoxazol-3-yl)urea]: the Kd on RAF kinases [1], at RAF kinases [2] and on RAF kinases [5] was under 250 nM in each case. Moreover, the IC50 in assay [3] fell in the range of 250 to 500 nM. Also, the EC50 in the assay with A375 cells was under 250 nM.

On to `COCCOc1cc2ncnc(Sc3cccc(NC(=O)Nc4cc(C(F)(F)F)nn4C)c3)c2cc1OC` [Ex 239, 1-{3-[6-methoxy-7-(2-methoxyethoxy)quinazolin-4-ylthio]phenyl}-3-[1-methyl-3-(trifluoromethyl)-1H-pyrazol-5-yl]urea], for which the Kd on RAF kinases [1], at RAF kinases [2] and on RAF kinases [5] was under 250 nM in each case. In addition, the IC50 in assay [3] was in the range of 250 to 500 nM. In addition, in the assay on A375 cells, the EC50 was over 1000 nM.

For `COc1cc2ncnc(Oc3cccc(NC(=O)Nc4cc(C(C)(C)F)no4)c3F)c2cc1OC` [Ex 296, 1-(3-(6,7-dimethoxyquinazolin-4-yloxy)-2-fluorophenyl)-3-(3-(2-fluoropropan-2-yl)isoxazol-5-yl)urea], the Kd at RAF kinases [1], at RAF kinases [2] and on RAF kinases [5] was under 250 nM in each case. Moreover, the IC50 in assay [3] is over 1000 nM. For the same compound, the concentration giving a half-maximal response (EC50) in the assay with A375 cells was over 1000 nM.

`COCCOc1cc2ncnc(Oc3cccc(NC(=O)Nc4cc(C(F)(F)F)n(C)n4)c3)c2cc1OC` [Ex 208, 1-{3-[6-methoxy-7-(2-methoxyethoxy)quinazolin-4-yloxy]phenyl}-3-[1-methyl-5-(trifluoromethyl)-1H-pyrazol-3-yl]urea]: the Kd at RAF kinases [1], at RAF kinases [2] and at RAF kinases [5] was under 250 nM each time. Besides, the IC50 in assay [3] is over 1000 nM. In the assay on A375 cells, the concentration for a half-maximal effect (EC50) was over 1000 nM.

With `COc1cc2ncnc(Oc3cccc(NC(=O)Nc4cccc(C(C)(C)C#N)c4)c3)c2cc1OC` [Ex 278, 1-(3-(2-cyanopropan-2-yl)phenyl)-3-(3-(6,7-dimethoxyquinazolin-4-yloxy)phenyl)urea], the Kd on RAF kinases [1], at RAF kinases [2] and at RAF kinases [5] was under 250 nM each time. Also, in assay [3], the IC50 was in the range of 250 to 500 nM. Moreover, in the assay with A375 cells, the 50% effective concentration (EC50) was in the range of 500 to 1000 nM.

On to `COc1cc2ncnc(Oc3cccc(NC(=O)Nc4cc(C5(C(F)(F)F)CC5)on4)c3)c2cc1OC` [Ex 377, 1-(3-(6,7-dimethoxyquinazolin-4-yloxy)phenyl)-3-(5-(1-(trifluoromethyl)cyclopropyl)isoxazol-3-yl)urea], for which the Kd at RAF kinases [1], on RAF kinases [2] and on RAF kinases [5] was under 250 nM each time. The IC50 in assay [3] was under 250 nM. Besides, the EC50 with A375 cells was under 250 nM.

In the case of `CCOc1cc2ncnc(Oc3cccc(NC(=O)Nc4cc(C(C)(C)F)no4)c3)c2cc1OC` [Ex 385, 1-(3-(7-ethoxy-6-methoxyquinazolin-4-yloxy)phenyl)-3-(3-(2-fluoropropan-2-yl)isoxazol-5-yl)urea], the Kd at RAF kinases [1], on RAF kinases [2] and on RAF kinases [5] was under 250 nM each time. Moreover, the IC50 in assay [3] is 250 to 500 nM. Further, the EC50 in the assay on A375 cells lay within 250 to 500 nM.

Regarding `COCCOc1cc2ncnc(Sc3cccc(NC(=O)Nc4cc(C(C)(CF)CF)nn4-c4ccccc4)c3)c2cc1OC` [Ex 238, 1-[3-(1,3-difluoro-2-methylpropan-2-yl)-1-phenyl-1H-pyrazol-5-yl]-3-{3-[6-methoxy-7-(2-methoxyethoxy)quinazolin-4-ylthio]phenyl}urea], the Kd on RAF kinases [1], on RAF kinases [2] and at RAF kinases [5] was over 1000 nM each time. Moreover, the IC50 in assay [3] is under 250 nM. For the same compound, the EC50 in the assay on A375 cells is over 1000 nM.

On to `COc1cc2ncnc(Sc3cccc(NC(=O)Nc4cccc(C(C)(C)C#N)c4)c3)c2cc1OC` [Ex 279, 1-(3-(2-cyanopropan-2-yl)phenyl)-3-(3-(6,7-dimethoxyquinazolin-4-ylthio)phenyl)urea], for which the Kd at RAF kinases [1], at RAF kinases [2] and on RAF kinases [5] was under 250 nM throughout. In addition, the IC50 in assay [3] lay within 250 to 500 nM. Besides, in the assay on A375 cells, the EC50 is over 1000 nM.

On to `COc1cc2ncnc(Oc3ccc(F)c(NC(=O)Nc4cc(C(C)(C)C)on4)c3)c2cc1OC` [Ex 367, 1-(5-tert-butylisoxazol-3-yl)-3-(5-(6,7-dimethoxyquinazolin-4-yloxy)-2-fluorophenyl)urea], for which the Kd on RAF kinases [1], on RAF kinases [2] and on RAF kinases [5] was under 250 nM each time. The IC50 in assay [3] is under 250 nM. The 50% effective concentration (EC50) in the assay with A375 cells was 250 to 500 nM.

With `COc1cc2ncnc(Oc3cc(NC(=O)Nc4cc(C(C)(C)F)no4)ccc3F)c2cc1OC` [Ex293, 1-(3-(6,7-dimethoxyquinazolin-4-yloxy)-4-fluorophenyl)-3-(3-(2-fluoropropan-2-yl)isoxazol-5-yl)urea], the dissociation constant (Kd) on RAF kinases [1], on RAF kinases [2] and on RAF kinases [5] was under 250 nM in each case. In assay [3], the IC50 is under 250 nM. Also, in the assay with A375 cells, the concentration for a half-maximal effect (EC50) fell in the range of 250 to 500 nM.

Turning to `CCOc1cc2c(Sc3cccc(NC(=O)Nc4cc(C(C)(C)C(F)(F)F)on4)c3)ncnc2cc1OC` [Ex 262, 1-(3-(6-ethoxy-7-methoxyquinazolin-4-ylthio)phenyl)-3-(5-(1,1,1-trifluoro-2-methylpropan-2-yl)isoxazol-3-yl)urea], the Kd at RAF kinases [1], at RAF kinases [2] and on RAF kinases [5] was under 250 nM in each case. Also, the IC50 in assay [3] is under 250 nM. Further, in the assay on A375 cells, the EC50 is over 1000 nM.

Consider `CCOc1cc2ncnc(Oc3cccc(NC(=O)Nc4cc(C(C)(CF)CF)on4)c3)c2cc1OC` [Ex 386, 1-(5-(1,3-difluoro-2-methylpropan-2-yl)isoxazol-3-yl)-3-(3-(7-ethoxy-6-methoxyquinazolin-4-yloxy)phenyl)urea], for which the Kd on RAF kinases [1], at RAF kinases [2] and at RAF kinases [5] was under 250 nM in each case. Also, the IC50 in assay [3] is under 250 nM. Moreover, the EC50 with A375 cells was under 250 nM.
